# Measurements published in paper PMC11239005, “Preclinical studies of RA475, a guanidine-substituted spirocyclic candidate RPN13/ADRM1 inhibitor for treatment of ovarian cancer” (PLOS ONE, 2024).
# What was measured:
# [1] = tested on: high molecular weight polyubiquitinated proteins in OVCAR3 cells; assay: Anti-ubiquitin immunoblot, OVCAR3; format: cell-based, human; conditions: Up284 0.5 μM, bortezomib 0.25 μM, ixazomib 0.25 μM, RA475 0.5 or 1 μM
# Text: Cell lysate prepared in MPER (Pierce) from each sample was normalized by total protein concentration using the bicinchoninic acid assay and bovine serum albumin standards. Normalized samples were subjected to SDS-PAGE, transferred to PVDF membranes and analyzed by Western blot using antibodies specific to ubiquitin (P4D1, sc-8017, Santa Cruz), PARP (#9542, […]), actin (#66009, Protein Tech Group), Tubulin(#66031, Protein Tech Group), ADRM1/RPN13 (D9Z1U, #12019, Cell Signaling), USP14 (Cell Signal, # 8159), Annexin V (#559763, BD Pharmingen), and for secondary antibodies we utilized either horseradish peroxidase (HRP)-linked anti-mouse IgG or anti-rabbit IgG (GE Healthcare UK Ltd), HRP-linked streptavidin (N100, Thermo Fisher) at the recommended dilution (1:5000).
# Accumulation of high molecular weight polyubiquitinated proteins (polyUb) is a classical phenomenon of proteasome function inhibition due to the stabilization of its substrate.
# Fig 3 Impact of RA475 on proteasome function. […] Actin was used as loading control. […] C) 4T1 and HCC1806 cells stably expressing 4UbFL were treated with compounds at indicated doses for 4 h and imaged by IVIS200 after the addition of luciferin substrate (50 μL, 7mg/mL in PBS). D) Sub-confluent cultures of ES2 cells stably expressing 4UbFL were seeded at 10,000 cells/well in 96-well microtiter plates. At 18 h post transfection, cells were treated with compounds or vehicle (DMSO) at the doses indicated. After a 4 h incubation, the cells were lysed and the luciferase activity in each cell lysate was determined with a luciferase assay kit (Promega) according to the manufacturer’s instructions. Bioluminescence was measured by using a luminometer (Glomax Multidetection system, Promega) E) A patch was shaved of hair on one leg of CD-1 mice, and 10 μg 4UbFL plasmid in 20 μL of PBS was injected into the quadriceps femoralis muscle followed immediately by injection of the 2 Needle Array to 5 mm depth encompassing the injection site and square wave electroporation (ElectroSquarePorator 833, BTX-2 Needle array 5mm gap, Harvard apparatus) delivered as eight pulses at 106V for 20 ms with 200 ms intervals. One day post electroporation, mice were anesthetized with isoflurane, injected IP with luciferin (0.3 mg in 100 μL water) and optical imaging was performed to determine basal level luciferase expression. Images were acquired for 10 min with a Xenogen IVIS 200 (Caliper, Hopkinton, MA). Equally sized areas were analyzed using Living Image 2.20 software. Mice were imaged weekly during treatment. […]
# RPN13 = biological target: T1, RPN13 (Homo sapiens, UniProt Q16186); assay: Up284B competition labelling in ES2 and SKOV3 cell lysate; format: binding; conditions: titrated RA475, bortezomib 1 μM, Up284B 5 μM
# T1 construct: performed the labeling assay after treating ovarian cancer cell lysates (ES2 and SKOV3) in the presence of titrated doses of RA475; endogenous in cells; host or cells: ES2 and SKOV3 ovarian cancer cell lysates
# T1 sequence (Q16186 whole entry): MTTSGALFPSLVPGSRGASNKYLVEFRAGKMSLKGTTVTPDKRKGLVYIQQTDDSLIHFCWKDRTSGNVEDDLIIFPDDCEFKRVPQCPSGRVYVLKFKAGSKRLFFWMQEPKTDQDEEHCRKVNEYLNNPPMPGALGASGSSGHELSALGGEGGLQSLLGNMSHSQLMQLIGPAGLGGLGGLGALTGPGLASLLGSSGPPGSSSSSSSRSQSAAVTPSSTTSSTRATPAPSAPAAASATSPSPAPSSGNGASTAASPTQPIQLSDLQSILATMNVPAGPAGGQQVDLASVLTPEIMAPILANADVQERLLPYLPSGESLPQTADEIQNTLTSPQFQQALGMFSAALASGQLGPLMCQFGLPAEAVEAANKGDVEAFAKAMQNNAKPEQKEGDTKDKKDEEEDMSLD
# Protocol: Clarified cell lysate in MPER buffer (Pierce) was pretreated with streptavidin-coated magnetic beads for 45 min at 4°C to deplete non-specific biotinylated proteins in the cell lysate. […] Next, the samples were mixed with Laemmli sample buffer (BioRad) and boiled for 5 min. The proteins were separated using a 4–15% Bio-Rad Mini-PROTEAN SDS-PAGE gel (1 h at 100 V), and transferred to PVDF membrane overnight at 4°C (24 V). The membrane was blocked with 5% (w/v) BSA in phosphate buffered saline containing 0.1% (v/v) Tween 20 (PBST) for 1 h at RT, and washed for 20 min (3X with PBST). Then the membrane was probed with HRP-streptavidin (1:10,000 in PBST) for 1 h at RT, washed for 30 min (3X with PBST), and developed using HyGLO chemiluminescent detection reagent (Denville) and visualized using a Biorad Chemidoc imager.
# Fig 2 RA475 binds to RPN13 and induces rapid apoptosis. […] C, D) RA475 competition labelling experiment. C) ES2 D) SKOV3 clarified cell lysate (40 μg/sample) in MPER buffer was pretreated with streptavidin-coated magnetic beads for 45 min at 4°C to deplete non-specific biotinylated proteins in the cell lysate. […] Next, the samples were mixed with Laemmli sample buffer (BioRad) and boiled for 5 min. The proteins were separated using a 4–15% Bio-Rad Mini-PROTEAN SDS-PAGE gel (1 h at 100 V), and transferred to PVDF membrane overnight at 4°C (24 V). […]
# [2] = cited from earlier work
compound,measurement,setting,value
CC(C)C[C@H](NC(=O)[C@H](Cc1ccccc1)NC(=O)c1cnccn1)B(O)O [bortezomib],forms of polyUb induced,[1],"only induced the smaller poly Ub forms, typically <250kDa"
same,competition with Up284B for binding to RPN13,RPN13,no impact
same,"concentration in human cerebrospinal fluid and murine brain tissue, % of serum concentrations",[2],5–7%
